Data: patent US6875451B2, “Compositions and methods for the treatment of primary and metastatic neoplastic diseases using arsenic compounds” (PolaRx Biopharmaceuticals Inc., priority 1997, dated 2005)

What was measured:
Type in all cases: cell-based
[1] = system: SF-295; assay: SRB growth assay, 2 days exposure, CNS cancer
Procedure: (§1) Arsenic trioxide (1 mg/ml, 10 mg/ampoule, manufactured by Taylor Pharmaceuticals, Decatur, Ill.) was tested at five concentrations each at 10-fold dilutions, i.e., 10^−5, 10^−6, 10^−7, 10^−8 and 10^−9 μg/ml.
(§2) The in vitro tests were performed by incubating the test cells in the presence of the indicated concentration of arsenic trioxide under standard culture conditions for a designated period of time, which is followed by a sulforhodamine B (SRB) protein assay to estimate cell viability or growth. The cell lines are organized into subpanels according to the origin of the cell lines, e.g., leukemia, breast cancer, etc. A description of the cell lines and method of testing is described in Monk et al. (1997, Anticancer Drug Des. 12:533-41) and Weinstein et al., (1997, Science 275:343-9), which are incorporated herein in their entirety.
(§3) The measurement of an effect is expressed in Percentage Growth (PG). The measured effect of the compound on a cell line is calculated according to one or the other of the following two expressions: If (Mean ODtest−Mean ODzero)≧0. then PG=100×(Mean ODtest−Mean ODzero)/(Mean ODctrl−Mean ODzero) If (Mean ODtest−Mean ODzero)<0. then PG=100×(Mean ODtest−Mean ODzero)/(Mean ODzero where: • Mean ODzero=the average of optical density measurements of SRB-derived color just before exposure of cells to the test compounds; • Mean ODtest=the average of optical density measurements of SRB-derived color after exposure of cells to the test compound for a designated period of time; and • Mean ODctrl=the average of optical density measurements of SRB-derived color after with no exposure of cells to the test compound for a designated period of time
(§4) The first two columns describe the subpanel (e.g., leukemia) and cell line (e.g., CCRF-CEM) involved. The next two columns list the Mean ODzero and Mean ODctrl; the next five columns list the Mean ODtest for each of five different concentrations. Each concentration is expressed as the log10 (molar or μg/ml). The next five columns list the calculated PGs for each concentration. The response parameters GI50, TGI and LC50 are interpolated values representing the concentrations at which the PG is +50, 0, and −50, respectively. Sometimes these response parameters cannot be obtained by interpolation. If, for instance, all of the PGs in a given row exceed +50, then none of the three parameters can be obtained by interpolation. In such a case, the value given for each response parameter is the highest concentration tested and is preceded by a “>” sign. This practice is extended similarly to the other possible situations where a response parameter cannot be obtained by interpolation.
(§5) In the first set, the cells from 56 different cancer cell lines were exposed to five concentrations of arsenic trioxide continuously for two days prior to performing the SRB assay. In the second set, the cells from 50 different cell lines (a subset of the first 56 cell lines, plus the renal cancer cell line 786-0) were exposed continuously for six days prior to the SRB assay.

[2] = system: U251; assay: SRB growth assay, 2 days exposure, CNS cancer
Procedure: as §1, §2, §3, §4, §5

[3] = system: DU-145; assay: SRB growth assay, 2 days exposure, prostate cancer
Procedure: as §1, §2, §3, §4, §5

[4] = system: PC-3; assay: SRB growth assay, 2 days exposure, prostate cancer
Procedure: as §1, §2, §3, §4, §5

[5] = system: IGROVI; assay: SRB growth assay, 6 days exposure, ovarian cancer; conditions: IGROV1, 6 days
Procedure: as §1, §2, §3, §4, §5

[6] = system: OVCAR-3; assay: SRB growth assay, 6 days exposure, ovarian cancer; conditions: OVCAR-3, 6 days
Procedure: as §1, §2, §3, §4, §5

[7] = system: OVCAR-5; assay: SRB growth assay, 6 days exposure, ovarian cancer; conditions: OVCAR-5, 6 days
Procedure: as §1, §2, §3, §4, §5

[8] = system: OVCAR-8; assay: SRB growth assay, 6 days exposure, ovarian cancer; conditions: OVCAR-8, 6 days
Procedure: as §1, §2, §3, §4, §5

[9] = system: SK-OV-3; assay: SRB growth assay, 6 days exposure, ovarian cancer; conditions: SK-OV-3, 6 days
Procedure: as §1, §2, §3, §4, §5

[10] = system: CAKI-1; assay: SRB growth assay, 6 days exposure, renal cancer; conditions: CAKI-1, 6 days
Procedure: as §1, §2, §3, §4, §5

[11] = read-out: LC50 (the source's name)

arsenic trioxide
TGI [1]: >0.0126 ng/mL
Percent Growth ([1]; log10 conc −4.9): 51%
Percent Growth ([1]; log10 conc −5.9): 91%
Percent Growth ([1]; log10 conc −6.9): 91%
Percent Growth ([1]; log10 conc −7.9): 96%
Percent Growth ([1]; log10 conc −8.9): 93%
TGI [2]: 0.00437 ng/mL
Percent Growth ([2]; log10 conc −4.9): −68%
Percent Growth ([2]; log10 conc −5.9): 80%
Percent Growth ([2]; log10 conc −6.9): 101%
Percent Growth ([2]; log10 conc −7.9): 99%
Percent Growth ([2]; log10 conc −8.9): 98%
TGI [3]: >0.0126 ng/mL
Percent Growth ([3]; log10 conc −4.9): 64%
Percent Growth ([3]; log10 conc −5.9): 96%
Percent Growth ([3]; log10 conc −6.9): 106%
Percent Growth ([3]; log10 conc −7.9): 131%
Percent Growth ([3]; log10 conc −8.9): 91%
TGI [4]: 0.011 ng/mL
Percent Growth ([4]; log10 conc −4.9): −4%
Percent Growth ([4]; log10 conc −5.9): 67%
Percent Growth ([4]; log10 conc −6.9): 88%
Percent Growth ([4]; log10 conc −7.9): 91%
Percent Growth ([4]; log10 conc −8.9): 103%
TGI [5]: 6.62E−06
Mean Optical Densities ([5]; Log 10 Concentration −4.9): 0.216
Percent Growth ([5]; Log 10 Concentration −4.9): −36%
Mean Optical Densities ([5]; Log 10 Concentration −5.9): 2.877
Percent Growth ([5]; Log 10 Concentration −5.9): 91%
Mean Optical Densities ([5]; Log 10 Concentration −6.9): 3.204
Percent Growth ([5]; Log 10 Concentration −6.9): 103%
Mean Optical Densities ([5]; Log 10 Concentration −7.9): 3.056
Percent Growth ([5]; Log 10 Concentration −7.9): 98%
Mean Optical Densities ([5]; Log 10 Concentration −8.9): 3.541
Percent Growth ([5]; Log 10 Concentration −8.9): 115%
CC50 [5, 11]: > 12.6 µM
TGI [6]: 2.36E−06
Mean Optical Densities ([6]; Log 10 Concentration −4.9): 0.001
Percent Growth ([6]; Log 10 Concentration −4.9): −99%
Mean Optical Densities ([6]; Log 10 Concentration −5.9): 0.482
Percent Growth ([6]; Log 10 Concentration −5.9): 37%
Mean Optical Densities ([6]; Log 10 Concentration −6.9): 1.124
Percent Growth ([6]; Log 10 Concentration −6.9): 97%
Mean Optical Densities ([6]; Log 10 Concentration −7.9): 1.128
Percent Growth ([6]; Log 10 Concentration −7.9): 98%
Mean Optical Densities ([6]; Log 10 Concentration −8.9): 1.047
Percent Growth ([6]; Log 10 Concentration −8.9): 90%
TGI [7]: 7.53E−06
Mean Optical Densities ([7]; Log 10 Concentration −4.9): 0.028
Percent Growth ([7]; Log 10 Concentration −4.9): −26%
Mean Optical Densities ([7]; Log 10 Concentration −5.9): 1.287
Percent Growth ([7]; Log 10 Concentration −5.9): 91%
Mean Optical Densities ([7]; Log 10 Concentration −6.9): 1.478
Percent Growth ([7]; Log 10 Concentration −6.9): 105%
Mean Optical Densities ([7]; Log 10 Concentration −7.9): 1.460
Percent Growth ([7]; Log 10 Concentration −7.9): 104%
Mean Optical Densities ([7]; Log 10 Concentration −8.9): 1.433
Percent Growth ([7]; Log 10 Concentration −8.9): 102%
CC50 [7, 11]: > 12.6 µM
TGI [8]: 3.21E−06
Mean Optical Densities ([8]; Log 10 Concentration −4.9): −0.001
Percent Growth ([8]; Log 10 Concentration −4.9): −100%
Mean Optical Densities ([8]; Log 10 Concentration −5.9): 1.437
Percent Growth ([8]; Log 10 Concentration −5.9): 68%
Mean Optical Densities ([8]; Log 10 Concentration −6.9): 2.242
Percent Growth ([8]; Log 10 Concentration −6.9): 107%
Mean Optical Densities ([8]; Log 10 Concentration −7.9): 1.848
Percent Growth ([8]; Log 10 Concentration −7.9): 88%
Mean Optical Densities ([8]; Log 10 Concentration −8.9): 2.272
Percent Growth ([8]; Log 10 Concentration −8.9): 109%
TGI [9]: 5.27E−06
Mean Optical Densities ([9]; Log 10 Concentration −4.9): 0.020
Percent Growth ([9]; Log 10 Concentration −4.9): −51%
Mean Optical Densities ([9]; Log 10 Concentration −5.9): 1.247
Percent Growth ([9]; Log 10 Concentration −5.9): 84%
Mean Optical Densities ([9]; Log 10 Concentration −6.9): 1.461
Percent Growth ([9]; Log 10 Concentration −6.9): 99%
Mean Optical Densities ([9]; Log 10 Concentration −7.9): 1.410
Percent Growth ([9]; Log 10 Concentration −7.9): 96%
Mean Optical Densities ([9]; Log 10 Concentration −8.9): 1.445
Percent Growth ([9]; Log 10 Concentration −8.9): 98%
TGI [10]: 2.43E−06
Mean Optical Densities ([10]; Log 10 Concentration −4.9): 0.004
Percent Growth ([10]; Log 10 Concentration −4.9): −88%
Mean Optical Densities ([10]; Log 10 Concentration −5.9): 0.491
Percent Growth ([10]; Log 10 Concentration −5.9): 35%
Mean Optical Densities ([10]; Log 10 Concentration −6.9): 1.573
Percent Growth ([10]; Log 10 Concentration −6.9): 117%
Mean Optical Densities ([10]; Log 10 Concentration −7.9): 1.725
Percent Growth ([10]; Log 10 Concentration −7.9): 128%
Mean Optical Densities ([10]; Log 10 Concentration −8.9): 1.254
Percent Growth ([10]; Log 10 Concentration −8.9): 93%
